These results are taken from patent US20090306093A1, “METHOD FOR TREATING PATIENT HAVING BENIGN PROSTATE HYPERPLASIA” (KAOHSIUNG MEDICAL UNIVERSITY, priority 2008, published 2009).

The structures appear in SMILES notation.

For assay [1], the system named is phenylephrine (10 μM) pre-contracted rat isolated prostate. As to the kind of experiment: Relaxation of phenylephrine pre-contracted rat isolated prostate strips (isometric tension). Conditions: for relaxation: 10 μM, 1 hour. On the procedure: The rat isolated prostate tissue was prepared as previously described with modifications^[10]. Briefly, Wistar rats (300-400 g) were killed with pentobarbital sodium (30 mg/kg) and the ventral part of their prostates were quickly excised. […] O2 and 5% CO2.
Isometric tension was recorded with a force displacement transducer (UGO BASILE, Model 7004, Italy). After the equilibration period, the strips were primed twice by adding 10 μM of the agonist, phenylephrine, to reach 80-100% of maximum contraction. […] The relaxation on rat prostate by KMUP-1 (0.01-100 μM) and tamsulosin (0.001 nM-100 μM) were also tested by their combination with sildenafil (0.1 μM), respectively. In isolated prostate strips, while stable constriction to phenylephrine was reached, sildenafil (0.1 μM) was pre-incubation for 30 minutes, before the cumulative addition of KMUP-1 (0.01-100 μM) or tamsulosin (0.001 nM-100 μM) to isolated prostate strips. In another experiment, to examine the possible mechanism of action of KMUP-1, rat prostates were pretreated with ODQ (1H-[1,2,4]oxadiazolo[4,3-a]quinoxalin-1-one, 10 μM, sGC inhibitor), RP-8pCPT-cGMPs (10 μM, PKG inhibitor), glibenclamide (10 μM, KATP channel blocker), 4-AP (4-aminopyridine, 100 μM, voltage-dependent K^+ channel blocker), apamin (1 μM, Ca^2+-dependent K^+ channel blocker) and charybdotoxin (ChTX) (0.1 μM, Ca^2+-dependent K^+ channel blocker) for 30 minutes before addition of KMUP-1 (100 μM).

For a further assay, the system named is ROCK2. As to the kind of experiment: Western blot of phenylephrine-induced Rho kinase (ROCK2) expression in rat prostate. Conditions: KMUP-1 10, 100 μM; Y-27632 10 μM; phenylephrine 10 μM. On the procedure:
In order to examine the expression of Rho kinase in prostate, the prostate strips were pre-incubated with phenylephrine (10 μM) for 30 minutes. After a pre-treatment of phenylephrine, KMUP-1 (10-100 μM) and Y-27632 (10 μM) were further incubated for 30 minutes. After the incubation time, the prostate were extracted with protein extraction reagent (Pierce Biotechnology, Inc., Rockford, Ill., USA.). The PZ-HPV-7 cells were incubated with and without KMUP-1 (0.1-10 μM) at 30 minutes, 8 and 24 hours. They were then washed rapidly with ice-cold PBS, incubated with protein extraction reagent, and scraped from the plates. The prostate tissues and cells were sonicated three times for 10 second each time and centrifuged at 13,000 rpm at 4° C. for 30 minutes. The protein concentrations of supernatants were determined, using bovine serum albumin as the standard. Tissue and cell extract protein were then boiled at a ratio of 4:1 with sample buffer (100 mM Tris, pH 6.8, 20% glycerol, 4% SDS, and 0.2% bromphenol blue). 40-60 μg protein was used in this experiment. Electrophoresis was performed using 10 or 12% SDS-polyacrylamide gel electrophoresis and then transferred to nitrocellulose membranes (Millipore Corporation, Billerica, Mass.). […] The intensity of the bands was measured by densitometry.
Background: Immunoblotting shows a protein as a band on a membrane.

For a further assay, the target named is a1A-adrenergic receptor. Particulars: data from the reference; cited from earlier work.
The test system of a further assay is sGCa1. As to the kind of experiment: Western blot of sGCa1 expression in rat prostate. Conditions: KMUP-1 10-100 μM; sildenafil, zaprinast 100 μM; 1 hour. On the procedure:
(§1) Prostate strips were incubated with KMUP-1 (10-100 μM), sildenafil (100 μM) and zaprinast (100 μM) in 10 mL Tyrode solution aerated with 95% O2 and 5% CO2 for 1 hour. To examine the possible mechanisms of KMUP-1 action, the rat prostate were pretreated with ODQ (10 μM), SQ22536 (10 μM) and RP-8pCPT-cGMPs (10 μM) for 30 minutes prior to the addition of KMUP-1 (100 μM).
(§2) In order to examine the expression of Rho kinase in prostate, the prostate strips were pre-incubated with phenylephrine (10 μM) for 30 minutes. After a pre-treatment of phenylephrine, KMUP-1 (10-100 μM) and Y-27632 (10 μM) were further incubated for 30 minutes. After the incubation time, the prostate were extracted with protein extraction reagent (Pierce Biotechnology, Inc., Rockford, Ill., USA.). The PZ-HPV-7 cells were incubated with and without KMUP-1 (0.1-10 μM) at 30 minutes, 8 and 24 hours. They were then washed rapidly with ice-cold PBS, incubated with protein extraction reagent, and scraped from the plates. The prostate tissues and cells were sonicated three times for 10 second each time and centrifuged at 13,000 rpm at 4° C. for 30 minutes. The protein concentrations of supernatants were determined, using bovine serum albumin as the standard. Tissue and cell extract protein were then boiled at a ratio of 4:1 with sample buffer (100 mM Tris, pH 6.8, 20% glycerol, 4% SDS, and 0.2% bromphenol blue). 40-60 μg protein was used in this experiment. Electrophoresis was performed using 10 or 12% SDS-polyacrylamide gel electrophoresis and then transferred to nitrocellulose membranes (Millipore Corporation, Billerica, Mass.). The membrane was blocked with Tris-buffered saline (20 mM Tris and 137 mM NaCl, pH 7.6) containing 0.1% Tween 20 (TTBS) and 5% non-fat milk at room temperature for 1 hour, washed with TTBS, and then incubated overnight at 4° C. in the appropriate primary antibody of PKG (Santa Cruz, 1:200), sGCa1 (Santa Cruz, 1:200), PKA (Abcam, 1:1000), ROCK2 (Upstate, 1:1000), and PDE5A (BD Biosciences, 1:1000), p21 (Upstate, 1:1000). The membranes were washed in TTBS before being incubated with horseradish peroxidase-conjugated antibody against mouse, goat, or rabbit IgG (Santa Cruz, 1:1000) for 1 hour. The membrane was then washed in TTBS and developed with the enhanced chemiluminescence (ECL) for the detection of the specific antigen. The intensity of the bands was measured by densitometry.

A further assay deals with PKG. As to the kind of experiment: Western blot of PKG expression in rat prostate. Conditions: KMUP-1 10, 100 μM; sildenafil, zaprinast 100 μM. On the procedure:
as §1, §2

The next assay deals with cGMP. Nature of the assay: Determination of cGMP in rat isolated prostate (radioimmunoassay). Conditions: 100 μM, 1 hour. On the procedure:
Isolated prostate strips from Wistar rats were prepared to determine prostate levels of cGMP and cAMP. Briefly, prostate strips were respectively incubated with KMUP-1 (10-100 μM), sildenafil (100 μM), and zaprinast (100 μM) in 10 mL Tyrode solution aerated with 95% O2 and 5% CO2 for 1 hour. To examine the possible mechanisms of action of KMUP-1, the rat prostate was pretreated with ODQ (10 μM, sGC inhibitor) and SQ22536 (9-(tetrahydro-2-furanyl)-9H-purin-6-amine, 10 μM, adenylyl cyclase inhibitor) for 30 minutes before KMUP-1 was added. After the incubation, the prostate tissues were extracted with 1 mL of 0.1 N HCl. The extracts were then lyophilized for a further measurement of cyclic GMP or cyclic AMP of each sample, using commercially available radioimmunoassay kits (Amersham Pharmacia Biotech, Buckinghamshire, England).

Where [2] appears, read: phenylephrine 10 μM pre-contracted.

In the case of `Nc1nc2c(nc(Sc3ccc(Cl)cc3)n2C2O[C@@H]3COP(=O)(O)O[C@H]3[C@H]2O)c(=O)[nH]1` (stereo in doubt) [8-pCPT-cGMP, reference compound], in assay [1] (setting [2]), the relaxation was found to be 35.00±4.40%.
For `C[C@@H](N)[C@H]1CC[C@H](C(=O)Nc2ccncc2)CC1` [Y-27632, reference compound], in the assay with ROCK2, the “phenylephrine-induced Rho kinase expression” value is “protected against phenylephrine-induced Rho kinase expression”.
As for `COc1cc2nc(N3CCN(C(=O)C4COc5ccccc5O4)CC3)nc(N)c2cc1OC` (centres unmarked) [doxazosin, reference compound], the relaxation in assay [1] (setting [2]) amounted to 73.00±2.8%. In addition, at a1A-adrenergic receptor, the “Receptor Affinity (pKi) a1A” value is recorded as 8.56.
With `CCCc1nn(C)c2c(=O)[nH]c(-c3cc(S(=O)(=O)N4CCN(C)CC4)ccc3OCC)nc12` [sildenafil, reference compound], in the assay on sGCa1, the “expression of sGCa1” value is reported as “do not significantly induce”. For the same compound, the “expression of PKG” value with PKG is “significantly induce”. Further, the relaxation ability in assay [1] (0.1 μM, phenylephrine 10 μM pre-contracted) was determined as 21.50±2.12%; in assay [1] (fourth value of the sentence, concentration not given), 78.00±8.02%. In assay [1] (setting [2]), the relaxation is given as 50.00±6.37%. In addition, the cGMP levels in the assay on cGMP is 3.20±0.61 pmol mg^−1 protein.
Turning to `CCOc1ccccc1OCCN[C@H](C)Cc1ccc(OC)c(S(N)(=O)=O)c1` [tamsulosin, reference compound], in assay [1] (setting [2]), the relaxation came to 107.50±6.76%. Moreover, in assay [1] (100 μM combined with sildenafil 0.1 μM), the relaxation activity worked out at 140.00±10.14%. Further, the relaxation ability in assay [1] (100 μM, phenylephrine 10 μM pre-contracted) worked out at 118.00±10.79%. Also, on a1A-adrenergic receptor, the “Receptor Affinity (pKi) a1A” value was 9.7, the “Selective Ratio a1A/a1B” value is recorded as 6.3 and the “Selective Ratio a1A/a1D” value is on record as 0.2.
On to `CCCOc1ccccc1-c1nc2nn[nH]c2c(=O)[nH]1` [zaprinast, reference compound], for which, in the assay on sGCa1, the “expression of sGCa1” value is listed as “do not significantly induce”. For the same compound, in the assay on PKG, the “expression of PKG” value is “significantly induce”. Moreover, in assay [1] (setting [2]), the relaxation is given as 79.00±5.00%. Moreover, the cGMP levels in the assay with cGMP turned out to be 2.23±0.24 pmol mg^−1 protein.
